{"source": "patent US20080085871A1", "about": "“Novel polysaccharide pro-drug 5-fluorouracil (5-FU) with enhanced target specificity for colorectal cancer and its preparation methods” (priority 2006, published 2008)", "key": {"[1]": {"test": "Distribution of 5-FU in different parts of the GI tract after oral feeding to mice", "format": "in vivo", "set-up": "key to 5-FU (μg/g) Stomach / 5-FU (μg/g) Proximal Small Intestine / 5-FU (μg/g) Distal Small Intestine / 5-FU (μg/g) Ileum and Cecum / 5-FU (μg/g) Colon and Rectum: —: dashed lines represent undetectable levels of 5-FU", "conditions": "for 5-FU (μg/g) Colon and Rectum / 5-FU (μg/g) Distal Small Intestine / 5-FU (μg/g) Ileum and Cecum / 5-FU (μg/g) Proximal Small Intestine / 5-FU (μg/g) Stomach: oral 22.5 mg/kg, n = 6, x ± s", "from_the_text": "Note that the dashed lines represent undetectable levels of 5-FU."}, "[2]": {"tested_on": "normal mice", "test": "Survival of normal mice after 7-day treatment (toxicological effects)", "format": "in vivo", "conditions": "for Survival Rate (%) after 7-day Treatment / Survivors/total after 7-day Treatment: normal mice, n = 10", "protocol": "Normal mice are administered with 7.5, 22.5, or 67.5 mg/kg/d of 5-FU and the 5-FU prodrug (as equivalent 5-FU dose). […]"}, "[3]": {"tested_on": "mice with colorectal cancer induced by DMH-DSS", "test": "Therapeutic effects on mice with colorectal cancer induced by DMH-DSS", "format": "in vivo", "conditions": "22.5 mg/kg/d equivalent 5-FU, two 7-day treatment periods with 7 days rest (21 days)", "from_the_text": "The doses delivered are equivalent with 1 time per day for 7 days as one treatment period, and then another period of treatment after 7 days of rest (i.e., a total of 21 days, two treatment periods with one week of rest in between)."}, "[4]": {"tested_on": "COLO-205 cell", "test": "In vitro suppression of COLO-205 cell proliferation", "format": "cell-based", "conditions": "Homo sapiens, details not enclosed, read-out: IC50 for suppressing COLO-205 cell proliferation", "from_the_text": "(§1) However, it should be understood that the 5-FU prodrug exerts its efficacy after it is digested and hydrolyzed at the target sites in the body. Because it is a prodrug, it has no direct effect on in vitro colorectal cancer cell lines."}, "[5]": {"tested_on": "HT-29 cell", "test": "In vitro suppression of HT-29 cell proliferation", "format": "cell-based", "conditions": "Homo sapiens, details not enclosed, read-out: IC50 for suppressing HT-29 cell proliferation", "from_the_text": "as §1"}, "[6]": {"conditions": "7.5 mg/kg/d (equivalent 5-FU dose)"}, "[7]": {"conditions": "22.5 mg/kg/d (equivalent 5-FU dose)"}, "[8]": {"conditions": "67.5 mg/kg/d (equivalent 5-FU dose)"}}, "data": [{"smiles": "O=c1[nH]cc(F)c(=O)[nH]1", "note": "[Example 5-FU, 5-fluorouracil]", "values": [{"measurement": "main site of distribution / detection in the GI tract", "setting": "[1]; fed orally", "result": "mucosa of stomach and proximal part of the small intestine"}, {"measurement": "5-FU (μg/g) Colon and Rectum", "setting": "[1]; 1 hr", "result": "—"}, {"measurement": "5-FU (μg/g) Distal Small Intestine", "setting": "[1]; 1 hr", "result": "0.42 ± 0.21", "unit": "µg/g"}, {"measurement": "5-FU (μg/g) Ileum and Cecum", "setting": "[1]; 1 hr", "result": "—"}, {"measurement": "5-FU (μg/g) Proximal Small Intestine", "setting": "[1]; 1 hr", "result": "1.75 ± 0.24", "unit": "µg/g"}, {"measurement": "5-FU (μg/g) Stomach", "setting": "[1]; 1 hr", "result": "3.04 ± 0.49", "unit": "µg/g"}, {"measurement": "5-FU (μg/g) Colon and Rectum", "setting": "[1]; 2.5 hr", "result": "0.25 ± 0.12", "unit": "µg/g"}, {"measurement": "5-FU (μg/g) Distal Small Intestine", "setting": "[1]; 2.5 hr", "result": "0.43 ± 0.24", "unit": "µg/g"}, {"measurement": "5-FU (μg/g) Ileum and Cecum", "setting": "[1]; 2.5 hr", "result": "0.37 ± 0.12", "unit": "µg/g"}, {"measurement": "5-FU (μg/g) Proximal Small Intestine", "setting": "[1]; 2.5 hr", "result": "0.64 ± 0.42", "unit": "µg/g"}, {"measurement": "5-FU (μg/g) Stomach", "setting": "[1]; 2.5 hr", "result": "1.97 ± 0.31", "unit": "µg/g"}, {"measurement": "5-FU (μg/g) Colon and Rectum", "setting": "[1]; 3.5 hr", "result": "0.41 ± 0.24", "unit": "µg/g"}, {"measurement": "5-FU (μg/g) Distal Small Intestine", "setting": "[1]; 3.5 hr", "result": "0.62 ± 0.12", "unit": "µg/g"}, {"measurement": "5-FU (μg/g) Ileum and Cecum", "setting": "[1]; 3.5 hr", "result": "0.42 ± 0.21", "unit": "µg/g"}, {"measurement": "5-FU (μg/g) Proximal Small Intestine", "setting": "[1]; 3.5 hr", "result": "0.53 ± 0.32", "unit": "µg/g"}, {"measurement": "5-FU (μg/g) Stomach", "setting": "[1]; 3.5 hr", "result": "1.12 ± 0.46", "unit": "µg/g"}, {"measurement": "5-FU (μg/g) Colon and Rectum", "setting": "[1]; 4.5 hr", "result": "0.56 ± 0.06", "unit": "µg/g"}, {"measurement": "5-FU (μg/g) Distal Small Intestine", "setting": "[1]; 4.5 hr", "result": "0.35 ± 0.21", "unit": "µg/g"}, {"measurement": "5-FU (μg/g) Ileum and Cecum", "setting": "[1]; 4.5 hr", "result": "0.37 ± 0.12", "unit": "µg/g"}, {"measurement": "5-FU (μg/g) Proximal Small Intestine", "setting": "[1]; 4.5 hr", "result": "0.42 ± 0.91", "unit": "µg/g"}, {"measurement": "5-FU (μg/g) Stomach", "setting": "[1]; 4.5 hr", "result": "0.97 ± 0.23", "unit": "µg/g"}, {"measurement": "5-FU (μg/g) Colon and Rectum", "setting": "[1]; 6 hr", "result": "0.17 ± 0.04", "unit": "µg/g"}, {"measurement": "5-FU (μg/g) Distal Small Intestine", "setting": "[1]; 6 hr", "result": "0.31 ± 0.09", "unit": "µg/g"}, {"measurement": "5-FU (μg/g) Ileum and Cecum", "setting": "[1]; 6 hr", "result": "0.21 ± 0.11", "unit": "µg/g"}, {"measurement": "5-FU (μg/g) Proximal Small Intestine", "setting": "[1]; 6 hr", "result": "0.37 ± 0.05", "unit": "µg/g"}, {"measurement": "5-FU (μg/g) Stomach", "setting": "[1]; 6 hr", "result": "0.63 ± 0.31", "unit": "µg/g"}, {"measurement": "5-FU (μg/g) Colon and Rectum", "setting": "[1]; 9 hr", "result": "0.08 ± 0.05", "unit": "µg/g"}, {"measurement": "5-FU (μg/g) Distal Small Intestine", "setting": "[1]; 9 hr", "result": "0.17 ± 0.06", "unit": "µg/g"}, {"measurement": "5-FU (μg/g) Ileum and Cecum", "setting": "[1]; 9 hr", "result": "0.03 ± 0.01", "unit": "µg/g"}, {"measurement": "5-FU (μg/g) Proximal Small Intestine", "setting": "[1]; 9 hr", "result": "0.17 ± 0.04", "unit": "µg/g"}, {"measurement": "5-FU (μg/g) Stomach", "setting": "[1]; 9 hr", "result": "0.33 ± 0.18", "unit": "µg/g"}, {"measurement": "5-FU (μg/g) Colon and Rectum", "setting": "[1]; 12 hr", "result": "0.05 ± 0.02", "unit": "µg/g"}, {"measurement": "5-FU (μg/g) Distal Small Intestine", "setting": "[1]; 12 hr", "result": "0.07 ± 0.04", "unit": "µg/g"}, {"measurement": "5-FU (μg/g) Ileum and Cecum", "setting": "[1]; 12 hr", "result": "0.04 ± 0.02", "unit": "µg/g"}, {"measurement": "5-FU (μg/g) Proximal Small Intestine", "setting": "[1]; 12 hr", "result": "0.03 ± 0.01", "unit": "µg/g"}, {"measurement": "5-FU (μg/g) Stomach", "setting": "[1]; 12 hr", "result": "0.06 ± 0.03", "unit": "µg/g"}, {"measurement": "5-FU (μg/g) Colon and Rectum", "setting": "[1]; 15 hr", "result": "—"}, {"measurement": "5-FU (μg/g) Distal Small Intestine", "setting": "[1]; 15 hr", "result": "—"}, {"measurement": "5-FU (μg/g) Ileum and Cecum", "setting": "[1]; 15 hr", "result": "—"}, {"measurement": "5-FU (μg/g) Proximal Small Intestine", "setting": "[1]; 15 hr", "result": "—"}, {"measurement": "5-FU (μg/g) Stomach", "setting": "[1]; 15 hr", "result": "—"}, {"measurement": "Survival Rate (%) after 7-day Treatment", "setting": "[2]; [6]", "result": 100, "unit": "%"}, {"measurement": "Survivors/total after 7-day Treatment", "setting": "[2]; [6]", "result": "(10/10)"}, {"measurement": "Survival Rate (%) after 7-day Treatment", "setting": "[2]; [7]", "result": 70, "unit": "%"}, {"measurement": "Survivors/total after 7-day Treatment", "setting": "[2]; [7]", "result": "(7/10)"}, {"measurement": "Survival Rate (%) after 7-day Treatment", "setting": "[2]; [8]", "result": 0, "unit": "%"}, {"measurement": "Survivors/total after 7-day Treatment", "setting": "[2]; [8]", "result": "(0/10)"}, {"measurement": "toxic effects in the first dose", "setting": "[2]; normal mice, 7.5, 22.5, or 67.5 mg/kg/d, first dose", "result": "no obvious toxic effects"}, {"measurement": "Survival at the End of the Study", "setting": "[3]; n = 10", "result": "5/10"}, {"measurement": "Survival Rate", "setting": "[3]; n = 10, listed as Generic 5-Fluorouracil (5-FU)", "result": 50, "unit": "%"}, {"measurement": "Survival Rate", "setting": "[3]; n = 10, listed as generic 5-FU", "result": 50, "unit": "%"}, {"measurement": "Tumor Weight Index", "setting": "[3]; x ± s", "result": "447 ± 113.5", "unit": "mg/g"}, {"measurement": "Tumor Weight as Compared to the Saline Control", "setting": "[3]; listed as Generic 5-Fluorouracil (5-FU)", "result": 65, "unit": "%"}, {"measurement": "Tumor Weight as Compared to the Saline Control", "setting": "[3]; listed as generic 5-FU", "result": 65, "unit": "%"}, {"measurement": "IC50", "setting": "[4]", "result": 3.2, "unit": "µM"}, {"measurement": "IC50", "setting": "[5]", "result": 13, "unit": "µM"}]}]}
